Measurements published in the supplement of paper PMC4862054.

Columns and labels:
Test in all cases: normalised response (% of control), CellTox Green; higher = less cell death (100 = DMSO, 0 = benzethonium chloride kill control)
Conditions in all cases: incubation time: 72 h
BT-474 = system: BT-474
Procedure, shortened: (§1)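 For each plate, 0.1 % DMSO was set to 100 and a positive kill control to 0. Breast cancer cell lines (20 µl suspension) were seeded into 384-well plates already holding compound at 5 concentrations in 10-fold steps over a 10,000-fold range chosen per compound, and incubated for 72 h. CellTox Green fluorescence at 485/520 nm was read before CellTiter-Glo luminescence, which followed 10 min at room temperature. Each value is the normalised signal at one concentration.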

BT-549 = system: BT-549
Procedure, shortened: as §1

CAL-120 = system: CAL-120
Procedure, shortened: as §1

CAL-148 = system: CAL-148
Procedure, shortened: as §1

CAL-51 = system: CAL-51
Procedure, shortened: as §1

CAL-85-1 = system: CAL-85-1
Procedure, shortened: as §1

DU-4475 = system: DU-4475
Procedure, shortened: as §1

HCC1143 = system: HCC1143
Procedure, shortened: as §1

HCC1599 = system: HCC1599
Procedure, shortened: as §1

HCC1937 = system: HCC1937
Procedure, shortened: as §1

HDQ-P1 = system: HDQ-P1
Procedure, shortened: as §1

Hs578T = system: Hs578T
Procedure, shortened: as §1

MCF-10A = system: MCF-10A
Procedure, shortened: as §1

MDA-MB-231 = system: MDA-MB-231
Procedure, shortened: as §1

MDA-MB-436 = system: MDA-MB-436
Procedure, shortened: as §1

MDA-MB-453 = system: MDA-MB-453
Procedure, shortened: as §1

MDA-MB-468 = system: MDA-MB-468
Procedure, shortened: as §1

MFM-223 = system: MFM-223
Procedure, shortened: as §1

| SMILES | normalised response (BT-474) | normalised response (BT-549) | normalised response (CAL-120) | normalised response (CAL-148) | normalised response (CAL-51) | normalised response (CAL-85-1) | normalised response (DU-4475) | normalised response (HCC1143) | normalised response (HCC1599) | normalised response (HCC1937) | normalised response (HDQ-P1) | normalised response (Hs578T) | normalised response (MCF-10A) | normalised response (MDA-MB-231) | normalised response (MDA-MB-436) | normalised response (MDA-MB-453) | normalised response (MDA-MB-468) | normalised response (MFM-223) |
| --- | --- | --- | --- | --- | --- | --- | --- | --- | --- | --- | --- | --- | --- | --- | --- | --- | --- | --- |
| COc1cccc2c1C(=O)c1c(O)c3c(c(O)c1C2=O)C[C@@](O)(C(C)=O)C[C@@H]3O[C@H]1C[C@H](N)[C@H](O)[C@H](C)O1 [Daunorubicin] (1000 nM) | 101% | 145% | 99.2% | 75% | 42.6% | 76.2% | 104% | 100% | 138% | 137% | 101% | 144% | 106% | 127% | 47.9% | 120% | 322% | 101% |
| CC(=O)O[C@H]1C(=O)[C@@]2(C)[C@H]([C@H](OC(=O)c3ccccc3)[C@]3(O)C[C@H](OC(=O)[C@H](O)[C@@H](NC(=O)c4ccccc4)c4ccccc4)C(C)=C1C3(C)C)[C@]1(OC(C)=O)CO[C@@H]1C[C@@H]2O [Paclitaxel] (100 nM) | 49.4% | 65.9% | 81.6% | 66.4% | 25.6% | 21.5% | 90.4% | 99.6% | 82.7% | 84.6% | 77.4% | 48.5% | -6.43% | -43% | 62.8% | 98.7% | 4.61% | 51.4% |
| Cn1c(=O)c(F)c(Nc2ccc(I)cc2F)c2c(=O)n(C[C@@H](O)CO)cnc21 [TAK-733] (1000 nM) | 102% | 119% | 87.2% | 98.7% | 105% | 41% | 70.7% | 128% | 113% | 102% | 94.6% | 38% | 110% | 64.2% | 97.9% | 109% | 87.6% | 104% |
| C[C@@]1(C(=O)Nc2ccc(F)nc2)CCCN1c1nc(Nc2cc(C3CC3)n[nH]2)c2cccn2n1 (1000 nM) | 97.7% | 104% | 98.1% | 88.8% | 49.5% | 95% | 90.6% | 68.5% | 97.6% | 93.8% | 82.1% | 110% | 80.4% | 76.2% | 90.8% | 104% | 52.5% | 76.7% |
| CC(C)C[C@H](NC(=O)[C@H](Cc1ccccc1)NC(=O)c1cnccn1)B(O)O [Bortezomib] (1000 nM) | 59.7% | 43.7% | 14.2% | 38% | 15.4% | -48% | 76.1% | 27.3% | 81.6% | 25.3% | 9.5% | 39.2% | 15.3% | -42.8% | 6.1% | 70.9% | -84% | 53.7% |
| O=c1[nH]c(=O)n([C@H]2C[C@H](O)[C@@H](CO)O2)cc1F [Floxuridine] (1000 nM) | 102% | 111% | 98.4% |  | 71% | 89.6% | 106% | 122% | 104% | 126% | 98% | 98.3% | 116% | 86% | 108% | 110% | 125% | 102% |
| O=c1[nH]c(=O)n([C@H]2C[C@H](O)[C@@H](CO)O2)cc1F [Floxuridine] (10000 nM) | 104% | 113% | 93.8% | 106% | 53.1% | 26.5% | 103% | 103% | 106% | 114% | 66.2% | 93.2% | 113% | 108% | 99.9% | 103% | 119% |  |
| CC(=O)O[C@H]1C(=O)[C@@]2(C)[C@H]([C@H](OC(=O)c3ccccc3)[C@]3(O)C[C@H](OC(=O)[C@H](O)[C@@H](NC(=O)c4ccccc4)c4ccccc4)C(C)=C1C3(C)C)[C@]1(OC(C)=O)CO[C@@H]1C[C@@H]2O [Paclitaxel] (1000 nM) | 43.1% | 56.5% | 82.8% | 86.3% | 38.7% | 41.7% | 95.4% | 87.3% | 86.6% | 71% | 81.5% | 18.5% | 1.34% | -30% | 49.4% | 92.1% | -32.9% | 58.8% |
| CC(C)(C)c1cc(NC(=O)Nc2ccc(-c3cn4c(n3)sc3cc(OCCN5CCOCC5)ccc34)cc2)no1 [Quizartinib] (100 nM) | 100% | 132% | 99.7% | 106% | 117% | 107% | 101% | 98.3% | 106% |  | 103% | 113% | 84.8% | 116% | 66.7% | 101% | 139% | 102% |
| Cn1cnc2c(F)c(Nc3ccc(Br)cc3F)c(C(=O)NOCCO)cc21 [MEK-162] (1000 nM) | 101% | 97.4% | 93.1% |  | 89.1% | 79.3% | 68.7% | 94.5% | 94.4% | 54.6% | 67.1% | 121% | 106% | 39.1% | 79.9% | 95.4% | 120% |  |
| COC1=C2C[C@@H](C)C[C@H](OC)[C@H](O)[C@@H](C)/C=C(\C)[C@H](OC(N)=O)[C@@H](OC)/C=C\C=C(/C)C(=O)NC(=CC1=O)C2=O [Geldanamycin] (1000 nM) | 95% | 112% | 102% |  | 109% | 91% | 99.2% | 102% | 92.2% | 105% | 102% | 91.1% | 96.8% | 107% | 92.2% | 104% |  | 90.7% |
